{
  "source": "BindingDB's records for doi:10.1021/acs.jmedchem.6b00275",
  "about": "(University of Washington, 2016)",
  "key": {"[1]": {"molecular_target": "Dihydroorotate dehydrogenase (quinone), mitochondrial (Homo sapiens, UniProt Q02127)", "sequence (Q02127 whole entry)": "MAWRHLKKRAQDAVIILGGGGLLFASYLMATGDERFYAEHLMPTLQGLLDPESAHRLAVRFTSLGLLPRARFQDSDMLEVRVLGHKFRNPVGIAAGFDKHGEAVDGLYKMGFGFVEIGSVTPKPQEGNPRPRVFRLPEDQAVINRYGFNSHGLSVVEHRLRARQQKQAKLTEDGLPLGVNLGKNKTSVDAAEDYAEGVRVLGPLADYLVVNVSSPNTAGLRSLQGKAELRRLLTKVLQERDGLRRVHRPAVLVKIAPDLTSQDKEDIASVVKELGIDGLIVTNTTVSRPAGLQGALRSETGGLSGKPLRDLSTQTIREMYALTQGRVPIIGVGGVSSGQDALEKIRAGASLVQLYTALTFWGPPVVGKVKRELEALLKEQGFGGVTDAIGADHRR", "assay": "Inhibition of N-terminal His6-tagged human DHODH expressed in Escherichia coli BL21 using L-DHO as substrate and CoQ as co-substrate by DCIP dye based spectrophotometric assay"}, "[2]": {"molecular_target": "T1, Cytochrome P450 2C8 (Homo sapiens, UniProt P10632)", "T1 sequence (P10632 whole entry)": "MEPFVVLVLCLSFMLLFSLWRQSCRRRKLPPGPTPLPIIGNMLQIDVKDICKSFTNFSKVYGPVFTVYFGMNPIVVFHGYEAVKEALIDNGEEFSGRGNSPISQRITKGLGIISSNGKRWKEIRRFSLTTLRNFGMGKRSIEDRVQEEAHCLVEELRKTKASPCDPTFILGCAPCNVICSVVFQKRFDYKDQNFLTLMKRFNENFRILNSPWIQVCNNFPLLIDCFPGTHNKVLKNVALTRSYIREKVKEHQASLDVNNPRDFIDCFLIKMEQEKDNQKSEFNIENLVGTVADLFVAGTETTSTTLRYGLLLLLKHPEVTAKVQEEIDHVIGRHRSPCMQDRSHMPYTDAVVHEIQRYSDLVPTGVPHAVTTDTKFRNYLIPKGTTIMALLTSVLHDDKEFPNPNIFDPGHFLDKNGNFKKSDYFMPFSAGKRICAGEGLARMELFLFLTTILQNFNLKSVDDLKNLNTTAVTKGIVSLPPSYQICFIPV", "assay": "Inhibition of CYP2C8 in human liver microsomes using isoform-specific probe substrates in presence of NADPH-generating system by LC-MS analysis"}, "[3]": {"molecular_target": "Cytochrome P450 3A4 (Homo sapiens, UniProt P08684)", "sequence (P08684 whole entry, canonical isoform)": "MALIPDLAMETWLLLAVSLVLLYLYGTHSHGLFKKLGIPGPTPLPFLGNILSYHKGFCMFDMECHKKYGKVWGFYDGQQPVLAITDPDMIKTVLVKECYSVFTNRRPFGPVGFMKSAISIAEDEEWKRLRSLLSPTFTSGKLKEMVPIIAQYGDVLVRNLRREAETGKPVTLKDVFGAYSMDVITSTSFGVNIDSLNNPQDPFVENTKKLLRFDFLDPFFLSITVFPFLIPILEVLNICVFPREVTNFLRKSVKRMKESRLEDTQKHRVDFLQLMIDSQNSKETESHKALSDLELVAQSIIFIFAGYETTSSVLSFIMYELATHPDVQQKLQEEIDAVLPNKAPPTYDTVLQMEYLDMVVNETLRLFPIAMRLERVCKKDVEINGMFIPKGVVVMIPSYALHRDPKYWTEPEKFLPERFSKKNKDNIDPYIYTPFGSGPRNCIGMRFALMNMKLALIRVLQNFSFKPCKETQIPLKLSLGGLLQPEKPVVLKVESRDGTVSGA", "assay": "Inhibition of CYP3A4 in human liver microsomes using isoform-specific probe substrates in presence of NADPH-generating system by LC-MS analysis"}, "[4]": {"molecular_target": "T2, Cytochrome P450 1A2 (Homo sapiens, UniProt P05177)", "T2 sequence (P05177 whole entry)": "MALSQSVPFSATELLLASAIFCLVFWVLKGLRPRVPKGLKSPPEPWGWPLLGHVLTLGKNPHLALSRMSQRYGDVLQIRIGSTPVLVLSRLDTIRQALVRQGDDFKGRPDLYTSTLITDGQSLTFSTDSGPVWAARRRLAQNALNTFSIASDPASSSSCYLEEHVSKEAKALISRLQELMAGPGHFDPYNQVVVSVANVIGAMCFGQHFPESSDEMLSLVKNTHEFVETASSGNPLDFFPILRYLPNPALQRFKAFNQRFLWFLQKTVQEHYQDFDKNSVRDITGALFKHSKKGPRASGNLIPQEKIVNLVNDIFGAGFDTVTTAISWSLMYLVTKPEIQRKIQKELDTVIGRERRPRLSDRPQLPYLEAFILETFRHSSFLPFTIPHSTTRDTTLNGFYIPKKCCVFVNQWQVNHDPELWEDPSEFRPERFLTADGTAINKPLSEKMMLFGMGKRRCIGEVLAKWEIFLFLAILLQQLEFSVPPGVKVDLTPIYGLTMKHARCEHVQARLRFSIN", "assay": "Inhibition of CYP1A2 in human liver microsomes using isoform-specific probe substrate in presence of NADPH-generating system by LC-MS analysis"}, "[5]": {"molecular_target": "Cytochrome P450 2D6 (Homo sapiens, UniProt P10635)", "sequence (P10635 whole entry, canonical isoform)": "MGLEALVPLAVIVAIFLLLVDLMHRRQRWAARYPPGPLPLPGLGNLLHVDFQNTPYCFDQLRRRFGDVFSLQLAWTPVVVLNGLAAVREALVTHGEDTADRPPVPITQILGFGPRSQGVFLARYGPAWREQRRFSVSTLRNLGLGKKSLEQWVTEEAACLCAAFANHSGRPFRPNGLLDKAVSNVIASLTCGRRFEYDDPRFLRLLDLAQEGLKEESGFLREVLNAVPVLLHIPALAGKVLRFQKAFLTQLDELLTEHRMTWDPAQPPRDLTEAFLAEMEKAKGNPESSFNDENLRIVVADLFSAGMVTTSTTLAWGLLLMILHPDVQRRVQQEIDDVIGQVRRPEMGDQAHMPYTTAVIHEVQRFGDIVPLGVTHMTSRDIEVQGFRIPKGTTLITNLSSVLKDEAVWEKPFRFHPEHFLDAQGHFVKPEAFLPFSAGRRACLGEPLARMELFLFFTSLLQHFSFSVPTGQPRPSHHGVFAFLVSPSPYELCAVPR", "assay": "Inhibition of CYP2D6 in human liver microsomes using isoform-specific probe substrates in presence of NADPH-generating system by LC-MS analysis"}, "[6]": {"molecular_target": "Dihydroorotate dehydrogenase (quinone), mitochondrial (Rattus norvegicus, UniProt Q63707)", "sequence (Q63707 whole entry)": "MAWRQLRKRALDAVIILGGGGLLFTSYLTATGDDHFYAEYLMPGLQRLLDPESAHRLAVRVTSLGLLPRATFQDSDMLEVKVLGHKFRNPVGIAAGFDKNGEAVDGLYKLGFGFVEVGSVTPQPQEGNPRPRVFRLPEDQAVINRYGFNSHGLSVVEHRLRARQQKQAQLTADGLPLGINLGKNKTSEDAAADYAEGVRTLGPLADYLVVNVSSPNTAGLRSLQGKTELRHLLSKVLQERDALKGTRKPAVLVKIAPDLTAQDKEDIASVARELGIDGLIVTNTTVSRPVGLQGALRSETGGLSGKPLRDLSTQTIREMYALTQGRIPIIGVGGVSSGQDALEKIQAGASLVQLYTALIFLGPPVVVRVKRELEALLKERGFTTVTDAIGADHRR", "assay": "Inhibition of N-terminal His6-tagged rat DHODH expressed in Escherichia coli BL21 expressed in Escherichia coli BL21 using L-DHO as substrate and CoQ as co-substrate by DCIP dye based spectrophotometric assay"}, "[7]": {"molecular_target": "T3, Cytochrome P450 2B6 (Homo sapiens, UniProt P20813)", "T3 sequence (P20813 whole entry)": "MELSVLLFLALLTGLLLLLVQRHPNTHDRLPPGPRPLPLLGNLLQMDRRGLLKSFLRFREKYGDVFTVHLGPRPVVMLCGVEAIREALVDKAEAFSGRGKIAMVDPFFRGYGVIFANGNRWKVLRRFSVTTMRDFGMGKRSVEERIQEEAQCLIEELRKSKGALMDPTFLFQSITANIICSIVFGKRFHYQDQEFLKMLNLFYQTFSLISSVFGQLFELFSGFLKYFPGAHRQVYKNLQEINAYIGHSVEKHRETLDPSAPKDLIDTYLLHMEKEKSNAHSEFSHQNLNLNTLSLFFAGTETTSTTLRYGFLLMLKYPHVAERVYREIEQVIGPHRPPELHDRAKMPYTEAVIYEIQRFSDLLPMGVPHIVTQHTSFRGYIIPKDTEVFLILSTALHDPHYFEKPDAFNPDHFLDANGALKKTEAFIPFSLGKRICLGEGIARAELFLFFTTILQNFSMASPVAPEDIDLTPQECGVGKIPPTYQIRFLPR", "assay": "Inhibition of CYP2B6 in human liver microsomes using isoform-specific probe substrates in presence of NADPH-generating system by LC-MS analysis"}, "[8]": {"molecular_target": "Cytochrome P450 2C9 (Homo sapiens, UniProt P11712)", "sequence (P11712 whole entry, canonical isoform)": "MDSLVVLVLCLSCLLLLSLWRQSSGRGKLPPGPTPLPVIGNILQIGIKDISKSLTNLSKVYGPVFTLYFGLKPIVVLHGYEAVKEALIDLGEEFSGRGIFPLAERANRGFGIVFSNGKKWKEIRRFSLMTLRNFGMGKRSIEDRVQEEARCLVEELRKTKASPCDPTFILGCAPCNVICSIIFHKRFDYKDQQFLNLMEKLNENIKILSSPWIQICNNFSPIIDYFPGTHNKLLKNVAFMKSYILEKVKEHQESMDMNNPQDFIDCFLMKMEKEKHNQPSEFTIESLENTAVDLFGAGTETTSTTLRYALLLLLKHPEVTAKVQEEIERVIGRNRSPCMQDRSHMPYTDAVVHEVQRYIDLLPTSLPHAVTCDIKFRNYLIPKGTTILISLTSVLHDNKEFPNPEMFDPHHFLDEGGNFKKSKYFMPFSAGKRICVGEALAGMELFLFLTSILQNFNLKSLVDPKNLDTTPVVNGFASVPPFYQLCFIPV", "assay": "Inhibition of CYP2C9 in human liver microsomes using isoform-specific probe substrates in presence of NADPH-generating system by LC-MS analysis"}, "[9]": {"molecular_target": "Cytochrome P450 2C19 (Homo sapiens, UniProt P33261)", "sequence (P33261 whole entry, canonical isoform)": "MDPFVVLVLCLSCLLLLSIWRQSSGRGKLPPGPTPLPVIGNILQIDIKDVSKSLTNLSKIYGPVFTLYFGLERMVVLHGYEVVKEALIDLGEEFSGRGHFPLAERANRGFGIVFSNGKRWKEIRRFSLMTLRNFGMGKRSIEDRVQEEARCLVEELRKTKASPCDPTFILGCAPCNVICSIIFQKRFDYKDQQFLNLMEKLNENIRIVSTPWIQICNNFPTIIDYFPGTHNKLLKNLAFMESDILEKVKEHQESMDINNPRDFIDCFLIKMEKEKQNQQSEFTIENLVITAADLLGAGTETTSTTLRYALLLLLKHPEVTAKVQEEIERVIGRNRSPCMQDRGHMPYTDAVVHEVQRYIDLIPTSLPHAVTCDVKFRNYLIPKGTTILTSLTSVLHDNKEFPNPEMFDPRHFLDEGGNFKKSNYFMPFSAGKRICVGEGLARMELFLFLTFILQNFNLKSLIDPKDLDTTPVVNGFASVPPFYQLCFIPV", "assay": "Inhibition of CYP2C19 in human liver microsomes using isoform-specific probe substrates in presence of NADPH-generating system by LC-MS analysis"}},
  "data": [
    {"smiles": "Cc1cc(NC2CCc3cc(Cl)ccc3C2)n2nc(C(C)(F)F)nc2n1", "note": "(stereo unspecified)", "values": [
      {"measurement": "IC50", "setting": "[1]", "value": "> 100", "unit": "µM"},
      {"measurement": "IC50", "setting": "[2]", "value": "> 20", "unit": "µM"},
      {"measurement": "IC50", "setting": "[3]", "value": "> 20", "unit": "µM"},
      {"measurement": "IC50", "setting": "[4]", "value": "> 20", "unit": "µM"},
      {"measurement": "IC50", "setting": "[5]", "value": 20, "unit": "µM"},
      {"measurement": "IC50", "setting": "[6]", "value": "> 100", "unit": "µM"},
      {"measurement": "IC50", "setting": "[7]", "value": 18.4, "unit": "µM"},
      {"measurement": "IC50", "setting": "[8]", "value": 10.2, "unit": "µM"}
    ]},
    {"smiles": "Cc1cc(NC2CCc3cc(Br)ccc3C2)n2nc(C(C)(F)F)nc2n1", "note": "(stereo unspecified)", "values": [
      {"measurement": "IC50", "setting": "[9]", "value": "> 20", "unit": "µM"},
      {"measurement": "IC50", "setting": "[1]", "value": "> 100", "unit": "µM"},
      {"measurement": "IC50", "setting": "[2]", "value": 18.7, "unit": "µM"},
      {"measurement": "IC50", "setting": "[4]", "value": "> 20", "unit": "µM"},
      {"measurement": "IC50", "setting": "[5]", "value": "> 20", "unit": "µM"},
      {"measurement": "IC50", "setting": "[6]", "value": "> 100", "unit": "µM"},
      {"measurement": "IC50", "setting": "[7]", "value": 17.7, "unit": "µM"},
      {"measurement": "IC50", "setting": "[8]", "value": 8.7, "unit": "µM"}
    ]},
    {"smiles": "Cc1cc(N[C@H]2CCc3ccc(Br)cc3C2)n2nc(C(C)(F)F)nc2n1", "values": [
      {"measurement": "IC50", "setting": "[9]", "value": "> 20", "unit": "µM"},
      {"measurement": "IC50", "setting": "[2]", "value": 16.9, "unit": "µM"},
      {"measurement": "IC50", "setting": "[3]", "value": "> 20", "unit": "µM"},
      {"measurement": "IC50", "setting": "[4]", "value": "> 20", "unit": "µM"},
      {"measurement": "IC50", "setting": "[5]", "value": 3.9, "unit": "µM"},
      {"measurement": "IC50", "setting": "[6]", "value": "> 100", "unit": "µM"},
      {"measurement": "IC50", "setting": "[7]", "value": "> 20", "unit": "µM"},
      {"measurement": "IC50", "setting": "[8]", "value": 3.1, "unit": "µM"}
    ]},
    {"smiles": "COc1ccc2c(c1)CC(Nc1cc(C)nc3nc(C(C)(F)F)nn13)CC2", "note": "(stereo unspecified)", "values": [
      {"measurement": "IC50", "setting": "[1]", "value": "> 100", "unit": "µM"}
    ]},
    {"smiles": "Cc1cc(NC2CCc3ccc(Cl)cc3C2)n2nc(C(F)(F)F)nc2n1", "note": "(stereo unspecified)", "values": [
      {"measurement": "IC50", "setting": "[1]", "value": "> 50", "unit": "µM"}
    ]}
  ]
}
